The term chromatographic logP denotes a lipophilicity value derived from retention on a column. A higher chromatographic logP goes with a more lipophilic compound.

For 81 molecules, LogP and chromatographic logP results are on record in patent US20200031778A1, “NOVEL 5-SUBSTITUTED IMIDAZOLYLMETHYL DERIVATIVES” (Bayer CropScience Aktiengesellschaft, priority 2016, published 2020).

Molecules are shown by their SMILES.

The series in a line: Log P by HPLC on reversed phase columns (EEC directive 79/831 Annex V.A8; methods [a], [b], [c]). Format: physicochemical. The note with it: for chromatographic logP: reversed phase HPLC column. A digest of the protocol: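 Reversed-phase HPLC with LC-UV detection, 10→95% acetonitrile linear gradient; aqueous eluent 0.1% formic acid [a], 0.001 M ammonium acetate, neutral [b], or 0.1% phosphoric acid [c]. Calibrated against C3–C16 alkan-2-ones of known Log P by retention-time linear interpolation; multiple values within a method separated by "+".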

Where [1] appears, read: method [a]: LC-UV, acidic range, 0.1% formic acid in water and acetonitrile as eluent (linear gradient from 10% to 95% acetonitrile).

With `N#Cc1cncn1CC(O)(c1cnc(Br)cc1Cl)C1(F)CC1` (stereo not drawn) [I-686], the LogP was 1.97^[a]. Same read-out and setting: then `CC(C)CC(O)(Cn1cncc1C#N)c1ccc(Cl)cc1` (stereo not drawn) [I-285], with 2.70^[a]; and `CC(C)(C)C(O)(Cn1cncc1Cl)c1cc2cc(OC(F)(F)F)ccc2o1` (stereo not drawn) [I-215], with 2.75^[a]; and `CC(O)(Cn1cncc1C#N)c1ccc(Oc2ccc(C(F)(F)F)nc2)nc1C(F)(F)F` (stereo not drawn) [I-294], with 2.76^[a]. Same read-out and setting: the value for `N#Cc1cncn1CC(O)c1ccc(Oc2ccc(Cl)cc2)cc1Br` (stereo not drawn) [I-59] was 3.21^[a]; that for `N#Cc1cncn1CC(O)(c1ccc(C2CC2)cc1Cl)C1(Cl)CC1` (stereo not drawn) [I-332] was 2.88^[a]; that for `N#Cc1cncn1CC(O)(c1ccc(Cl)cc1F)C1CCCCC1` (stereo not drawn) [I-482] was 3.42^[a]. For the molecule `N#Cc1cncn1CC(O)(c1cc(Cl)c(F)c(Cl)c1)C1(F)CC1` (stereo not drawn) [I-477], the LogP is 2.74^[a]. Take `OC(Cn1cncc1C(F)(F)F)c1ccc(Oc2ccc(Cl)cc2)cc1F` (stereo not drawn) [I-90]: the LogP was 3.4^8[a]. Still for that read-out and setting: then `N#Cc1cncn1CC(O)(CC1CC1)c1c(F)cccc1F` (stereo not drawn) [I-513], with 2.18^[a]; and `NC(=S)c1cncn1CC(O)(CC1CC1)c1ccc(F)cc1F` (stereo not drawn) [I-484], with 1.53^[a]. Regarding `OC(C#CC1CCCC1)(Cn1cncc1C(F)(F)F)C1(Cl)CC1` (stereo not drawn) [I-603], the LogP was 3.37^[a]. On to `N#Cc1cncn1CC(O)(c1c(F)ccc(Cl)c1Cl)C1(F)CC1` (stereo not drawn) [I-565], for which the LogP was 2.39^[a]. As for `N#Cc1ccc(C(O)(Cn2cncc2C#N)C2(F)CC2)c(Cl)c1` (stereo not drawn) [I-389], the LogP was 2.04^[a]. Still for that read-out and setting: then `C[Si](C)(C)CC(O)(Cn1cncc1C#N)c1ccc(C(F)(F)F)cc1` (stereo not drawn) [I-269], with 3.55^[a]. The same measure, in the same setting: the value for `CCOC(Cn1cncc1Br)c1ccc(Oc2ccc(Br)cc2)cc1Br` (stereo not drawn) [I-57] was 4.16^[a]; that for `OC(Cn1cncc1Br)c1ccc(Oc2ccc(I)cc2)cc1Br` (stereo not drawn) [I-109] was 2.78^[a]; that for `COC(Cn1cncc1C#N)c1ccc(Oc2ccc(Br)cc2)cc1C(F)(F)F` (stereo not drawn) [I-88] was 4.25^[a]. The same measure, in the same setting: then `OC(Cn1cncc1Cl)c1ccc(Oc2ccc(C(F)(F)F)cc2)c(Br)c1` (stereo not drawn) [I-12], with 2.75^[a]; and `CC(O)(Cn1cncc1Cl)c1ccc(Oc2ccc(C(F)(F)F)cc2)c(Br)c1` (stereo not drawn) [I-160], with 2.78^[a]. Turning to `CC(O)(Cn1cncc1Br)c1ccc(Oc2ccc(Cl)cc2)cc1C(F)(F)F` (stereo not drawn) [I-193], the LogP is 2.76^[a]. Same read-out and setting: then `OC(CCC1CCCC1)(Cn1cncc1C(F)(F)F)C1(Cl)CC1` (stereo not drawn) [I-674], with 4.10^[a]. Still for that read-out and setting: the value for `N#Cc1cncn1CC(O)(c1ccc(Cl)cc1)C1(F)CC1` (stereo not drawn) [I-231] was 2.27^[a]. Still for that read-out and setting: the value for `CC(O)(Cn1cncc1C#N)c1cnc(Oc2ccc(C(F)F)cc2)cc1C(F)(F)F` (stereo not drawn) [I-341] was 2.80^[a]; that for `N#Cc1cncn1CC(O)(c1cc(F)cc(Cl)c1F)C1(F)CC1` (stereo not drawn) [I-613] was 2.29^[a]. `CC(O)(Cn1cncc1F)c1cnc(Oc2ccc(C(F)F)cc2)cc1C(F)(F)F` (stereo not drawn) [I-230]: the LogP was 2.17^[a]. As to `CC(O)(Cn1cncc1F)c1cnc(Oc2ccc(C(F)(F)F)cc2)cc1Cl` (stereo not drawn) [I-244], the LogP is 2.13^[a].

Regarding `N#Cc1cncn1CC(O)c1ccc(Oc2ccc(C(F)(F)F)cc2)nc1` (stereo not drawn) [I-129], the LogP is 2.55^[a]. Same read-out and setting: the value for `CC(O)(Cn1cncc1C#N)c1cnc(Oc2ccc(Br)nc2)cc1C(F)(F)F` (stereo not drawn) [I-362] was 2.58^[a]. Under setting [1], `O=Cc1ccc(Oc2ccc(C(=O)Cn3cncc3F)c(Cl)n2)cc1` [IX-85] had a chromatographic logP of 1.59. On to `CC(C)(C)c1ccc(C#CC(O)(Cn2cncc2C#N)C2(Cl)CC2)cc1` (stereo not drawn) [I-317], for which the LogP is 3.73^[a].

`N#Cc1cncn1CC(O)(c1ccc(F)cc1F)C1CCC1` (stereo not drawn) [I-447]: the LogP was 2.53^[a]. Still for that read-out and setting: the value for `CC(O)(Cn1cncc1C#N)c1cnc(Oc2ccc(C(F)(F)F)cc2)cc1C(F)(F)F` (stereo not drawn) [I-251] was 3.51^[a]. Still for that read-out and setting: the value for `CC(C)CC(O)(Cn1cncc1C#N)c1ccc(Cl)cc1Cl` (stereo not drawn) [I-303] was 3.39^[a]. The same measure, in the same setting: then `CN(C)C(=O)OC(Cn1cncc1C#N)c1ccc(Oc2ccc(Br)cc2)cc1C(F)(F)F` (stereo not drawn) [I-92], with 3.85^[a]; and `CCc1ccc(C(O)(Cn2cncc2C#N)C2(Cl)CC2)c(Cl)c1` (stereo not drawn) [I-353], with 2.86^[a]; and `CC(O)(Cn1cncc1Cl)c1ccc(Oc2ccc(I)cc2)cc1Cl` (stereo not drawn) [I-166], with 3.04^[a].

Turning to `CC(O)(Cn1cncc1Cl)c1ccc(Oc2ccc(Br)cc2)cc1C(F)(F)F` (stereo not drawn) [I-169], the LogP was 2.90^[a]. Still for that read-out and setting: then `CC(O)(Cn1cncc1C(F)(F)F)c1ccc(Oc2ccc(Cl)cc2)cc1Cl` (stereo not drawn) [I-183], with 4.25^[a]. Still for that read-out and setting: the value for `N#Cc1cncn1CC(O)(c1ccc(Oc2ccc(Cl)cc2)cc1Cl)C1(Cl)CC1` (stereo not drawn) [I-391] was 3.78^[a]; that for `N#Cc1cncn1CC(O)(c1cc(Cl)cc(Cl)c1Cl)C1(F)CC1` (stereo not drawn) [I-612] was 2.66^[a]. Still for that read-out and setting: the value for `N#Cc1cncn1CC(O)(c1ccc(C2CC2)cc1Cl)C1(F)CC1` (stereo not drawn) [I-392] was 2.74^[a]; that for `N#CCOC(Cn1cncc1C#N)c1ccc(Oc2ccc(Br)cc2)cc1C(F)(F)F` (stereo not drawn) [I-87] was 3.73^[a]; that for `CC(O)(Cn1cncc1F)c1cnc(Oc2ccc(Cl)cc2)cc1C(F)(F)F` (stereo not drawn) [I-240] was 2.30^[a].

For `CC(O)(Cn1cncc1Cl)c1ccc(Oc2ccc(Cl)nc2)cc1Cl` (stereo not drawn) [I-176], the LogP is 2.13^[a].

Consider `N#Cc1cncn1CC(O)(C#CC1CCc2ccccc21)C1(Cl)CC1` (stereo not drawn) [I-602], for which the LogP is 2.92^[a]. On to `N#Cc1cncn1CC(O)(c1ccc(F)c(Br)c1F)C1(F)CC1` (stereo not drawn) [I-625], for which the LogP is 2.35^[a]. For `O=C(Cn1cncc1Cl)c1ccc(Oc2ccc(Cl)cn2)cc1` [IX-02], the chromatographic logP under setting [1] was found to be 2.12. For `N#Cc1cncn1CC(O)(c1ccc(F)cc1)C1(F)CC1` (stereo not drawn) [I-351], the LogP was 2.04^[a].

In the case of `CC(O)(Cn1cncc1Br)c1ccc(Oc2ccc(Br)cc2)cc1Br` (stereo not drawn) [I-184], the LogP is 3.06^[a].

In the case of `CCCC(O)(Cn1cncc1C#N)c1ccc(F)cc1C(F)(F)F` (stereo not drawn) [I-459], the LogP was 2.71^[a]. On the same count and under the same terms, then `N#Cc1cncn1CC(O)(c1cccc(Cl)c1Cl)C1(F)CC1` (stereo not drawn) [I-438], with 2.39^[a]; and `COC(Cn1cncc1C#N)c1ccc(Oc2ccc(Br)cc2)cc1Br` (stereo not drawn) [I-63], with 4.20^[a]; and `N#Cc1cncn1CC(O)(c1ccc(S(F)(F)(F)(F)F)cc1)C1(F)CC1` (stereo not drawn) [I-379], with 2.78^[a].

In turn, `O=C(Cn1cncc1Cl)c1ccc(Oc2ccc(OC(F)(F)F)cc2)c(Br)c1` [IX-10] had a chromatographic logP under setting [1] of 3.41. As for `N#Cc1cncn1CC(O)(CCc1ccc(OC(F)(F)F)c(F)c1)C1(Cl)CC1` (stereo not drawn) [I-359], the LogP was 3.31^[a]. On the same count and under the same terms, the value for `OC(Cn1cncc1F)c1cnc(Oc2ccc(OC(F)(F)F)cc2)cc1C(F)(F)F` (stereo not drawn) [I-121] was 2.42^[a]. For `N#Cc1cncn1CC(O)(CCC1CCCCC1)C1(Cl)CC1` (stereo not drawn) [I-660, 1-[2-(1-chlorocyclopropyl)-4-cyclohexyl-2-hydroxybutyl]-1H-imidazole-5-carbonitrile], the chromatographic logP (method [a], HPLC on reversed phase columns) was 3.79. For the molecule `N#Cc1cncn1CC(O)c1ccc(Oc2ccc(Br)cc2)cc1Br` (stereo not drawn) [I-47], the LogP is 3.33^[a]. Same read-out and setting: then `CCCCCC(O)(Cn1cncc1C#N)c1ccc(Cl)cc1Cl` (stereo not drawn) [I-302], with 3.83^[a]; and `COC(Cn1cncc1Br)c1ccc(Oc2ccc(Cl)cc2)cc1Br` (stereo not drawn) [I-50], with 3.59^[a]. Same read-out and setting: then `N#Cc1cncn1CC(O)(c1ccc(Br)nc1Cl)C1(F)CC1` (stereo not drawn) [I-683], with 2.01^[a]; and `OC(Cn1cncc1F)c1ccc(Oc2ccc(C(F)F)cc2)nc1Cl` (stereo not drawn) [I-102], with 1.80^[a]; and `OC(Cn1cncc1Cl)c1ccc(Oc2ccc(I)cc2)cc1F` (stereo not drawn) [I-31], with 2.51^[a]. The same measure, in the same setting: the value for `C[Si](C)(C)C#Cc1ccc(C(O)(Cn2cncc2C#N)C2(Cl)CC2)c(Cl)c1` (stereo not drawn) [I-366] was 4.24^[a]. As to `COC(Cn1cncc1C#N)c1ccc(Oc2ccc(Cl)cc2)cc1Br` (stereo not drawn) [I-61], the LogP was 4.08^[a]. Same read-out and setting: the value for `CC(C)(C)C(O)(Cn1cncc1C#N)c1ccc(Cl)cc1F` (stereo not drawn) [I-342] was 3.00^[a]; that for `N#Cc1cncn1CC(O)(c1ccc(Br)cc1Br)C1(F)CC1` (stereo not drawn) [I-433] was 2.71^[a]; that for `CC(C)(C)CC(O)(Cn1cncc1C#N)c1ccccc1Cl` (stereo not drawn) [I-309] was 3.17^[a]. As for `OC(Cn1cncc1F)(c1ccc(Cl)cc1F)C1(F)CC1` (stereo not drawn) [I-437], the LogP is 1.57^[a]. On the same count and under the same terms, the value for `CCCCC(O)(Cn1cncc1C#N)c1ccc(C(F)(F)F)cc1F` (stereo not drawn) [I-267] was 3.35^[a].

Take `N#Cc1cncn1CC(O)(CC1CC1)c1ccc(Cl)c(Cl)c1` (stereo not drawn) [I-488]: the LogP was 2.78^[a]. The same measure, in the same setting: then `N#Cc1cncn1CC(O)(c1ccc(Oc2ccc(Cl)cc2)cc1Cl)C1(F)CC1` (stereo not drawn) [I-390], with 3.64^[a]; and `N#Cc1cncn1CC(O)(CCC1CCCCC1)C1(F)CC1` (stereo not drawn) [I-662], with 3.19^[a]. On the same count and under the same terms, then `N#Cc1cncn1CC(O)(c1ccc(Cl)c(Cl)c1)C1(F)CC1` (stereo not drawn) [I-487], with 2.51^[a]. The same measure, in the same setting: then `N#Cc1cncn1CC(O)(CC1CC1)c1cc(F)c(Cl)c(Cl)c1` (stereo not drawn) [I-530], with 2.97^[a]; and `C#CC(O)(Cn1cncc1C#N)C1(Cl)CC1` (stereo not drawn) [I-670], with 1.36^[a].

Regarding `COC(Cn1cncc1C#N)c1ccc(Oc2ccc(Br)cc2)cc1F` (stereo not drawn) [I-55], the LogP is 3.79^[a]. Still for that read-out and setting: then `COC(=O)COC(Cn1cncc1C#N)c1ccc(Oc2ccc(Br)cc2)cc1C(F)(F)F` (stereo not drawn) [I-94], with 3.99^[a]; and `Cc1ccc(C(O)(Cn2cncc2C#N)C2(Cl)CC2)cc1C1(C(F)(F)F)CC1` (stereo not drawn) [I-212], with 3.27^[a]; and `N#Cc1cncn1CC(O)c1cnc(Oc2ccc(C(F)(F)F)cc2)cc1C(F)(F)F` (stereo not drawn) [I-111], with 3.15^[a].
